According to patent US20250041379A1, “METHODS AND COMPOSITIONS FOR THE TREATMENT OF CANCER” (Vigeo Therapeutics, Inc., priority 2021, published 2025):
No end group written: not given here.

Assays:
[1] = test system: pancreatic cancer; assay: Phase I/II clinical study: tumor burden, stable disease and days on study in pancreatic cancer (Part 2); assay type: in vivo, human
Protocol: VT1021 was evaluated in a recently completed phase I/II open-label, multicenter, dose escalation (Part 1) and expansion (Part 2) clinical study in advanced, refractory, solid tumors including pancreatic cancer (NCT03364400). Seven subjects with pancreatic cancer were dosed in Part 1 and 32 were dosed in Part 2, 17 of which were considered evaluable as having completed ≥1 cycle of VT1021 treatment and tumor imaging during cycle 2. […] In the “expansion stage” of the VT1021-01 Study, subjects diagnosed with recurrent GBM, pancreatic cancer, ovarian cancer and other solid tumors were enrolled. They were treated with VT1021 at 11.8 mg/kg, twice weekly by IV infusion. The blood samples were collected from the clinical study at pre-treatment, 0, 2, 4, 6 hours post treatment to measure the levels of VT1021 (FIG. 2). The tumor biopsy samples prior to treatment and during treatment were collected from the clinical study to measure expression levels of biomarkers including CD36 and CD47, as well as cell surface markers for immune cell populations in the TME by immunohistochemistry assays (FIG. 3, FIG. 4, FIG. 5). The correlation between days on study and tumor shrinkage versus expression profile of CD36 and CD47 was analyzed (FIG. 4). The general expression profile of CD36 and CD47 has been assessed by IHC on Tumor Tissue Microarrays (TMAs), which contain biopsy samples collected from pancreatic cancer patients. TMAs were purchased from commercial sources, not related to the VT1021-01 clinical study. […] A waterfall plot illustrates changes in tumor burden for 14 subjects in Part 2 with pancreatic cancer with measurable disease.

[2] = test system: tumor microenvironment (TME) in rGBM; assay: IHC and multiplex ion beam imaging of immune cells in rGBM tumor biopsy pair; assay type: in vivo, human; details: rGBM subject with CR
Description: FIG. 11C is a bar graph of the change in the percentage of M1 and M2 macrophages in patient tumor tissue as determined by metal ion immunostaining.
FIG. 11E is a bar graph depicting the fold-change in cytotoxic T lymphocytes (CTLs) in patients prior to the onset of treatment with VT1021 (pre-treatment) and during treatment with VT1021 (On-Study) as determined by metal ion immunostaining.
FIG. 11F is a bar graph depicting the fold-change in total and monocytic myeloid derived suppressor cells (MDSCs) in patients prior to the onset of treatment with VT1021 (pre-treatment) and during treatment with VT1021 (On-Study) as determined by metal ion immunostaining.
The blood samples were collected from GBM subjects in the expansion phase, who were treated by VT1021 at 11.8 mg/kg, twice weekly, by IV infusion. VT1021 levels were measured and analyzed among male and female subjects (FIG. 7). Days on study have been collected from the same group of subjects (FIG. 8). […] CD36 and CD47 levels have been measured by immunohistochemistry assays in the pre-treatment tumor biopsy samples of the GBM subjects (FIG. 9, FIG. 10). Levels of Tsp-1 were measured by ELISA for circulating Tsp-1 levels in the collected blood samples, and by immunohistochemistry for the level of Tsp-1 accumulated in the tumor biopsy samples (FIG. 10). The infiltration of immune and inflammatory cells, specifically, MDSCs, T cells and macrophages, were determined by immunohistochemical analysis of the levels of cell surface markers in the tumor biopsy samples of subjects (FIG. 11).
FIG. 11A, FIG. 11B, FIG. 11C, FIG. 11D, FIG. 11E, and FIG. 11F are charts showing modulation of the immune system by VT1021 in circulation and in the TME. […] Proliferating CTLs increased ≥1.5 fold regardless of clinical response, proliferating helper T cells increased ≥1.5 fold in CR/PR and PD subjects while monocytic MDSCs (mMDSCs) and activated MDSCs decreased≤0.5 fold in all evaluable subjects. […] Percent of M1 increased 1.9-fold while M2 decreased 0.6-fold after treatment. […] CTLs increased >4 fold while total and mMDSCs […] >15 fold in the on-study biopsy compared to pre-treatment.

[3] = test system: animal models of ovarian, pancreatic, and breast cancer; assay: Preclinical studies in animal models of cancer; assay type: in vivo; details: multiple animal models of ovarian
[4] = test system: pancreatic cancer; assay: Example 3: treatment of pancreatic cancer with dually elevated CD36 and CD47; assay type: in vivo; details: expected
Protocol: Subjects having pancreatic cancer are identified using standard clinical protocols. Samples are obtained and levels of CD36 and CD47 measured using methods known in the art. Subjects presenting with dually elevated CD36 and CD47 levels as compared to suitable controls are selected for dosing with VT1021. Subjects advancing to the treatment phase are administered VT1021. Frequency and dosage are determined in accordance with the stage and severity of disease accordingly to methods standard in the art. Tumor burden and other disease indicators are measured and data compiled using methods known in the art.

[5] = on-study biopsy vs pre-treatment, multiplex ion beam imaging, increased

cyclic DWLPK (also: cyclic, mode of cyclisation not given here) [VT1021, 5-amino acid cyclic peptide from prosaposin; Tsp-1-inducing agent]
subjects with stable disease ([1]; Part 2 pancreatic cancer, all dually high CD36 and CD47): 3 subjects | subjects with reduction of tumor burden ([1]; of 14 Part 2 pancreatic cancer subjects with measurable disease, all dually high CD36 and CD47): 5 subjects | average time remained on the study ([1]; the 5 pancreatic cancer subjects with reduction of tumor burden (dually high)): 105 days | M2 macrophages, fold change ([2]; biopsy pair pre-treatment vs on-study, decreased): 0.6 fold | Percent of M1 macrophages, fold change ([2]; biopsy pair pre-treatment vs on-study, increased): 1.9 fold | CTLs, fold change [2, 5]: > 4 fold | mMDSCs, fold change [2, 5]: > 15 fold | total MDSCs, fold change [2, 5]: > 15 fold | anti-tumor activity [3]: robust anti-tumor activity | tumor burden compared to control subjects [4]: reduction in tumor burden
